According to patent US20240409935A1, “Atg8ylation coordinates stress granule formation and mTOR inactivation in response to lysosomal damage” (priority 2023, published 2024):

Columns and labels:
mTOR = test: Immunoblot analysis of S6K1 (T389) phosphorylation in HeLa cells; format: cell-based, human; conditions: HeLa (WT) cells, 4 mM LLOMe for 30 min
[1] = tested on: polyA RNA in G3BP1 puncta; test: Confocal microscopy of G3BP1 and polyA RNA (Cy3-oligo[dT]) by FISH in U2OS cells; format: cell-based, human; conditions: 2 mM LLOMe for 30 min
[2] = tested on: G3BP1+ SGs and lysosomes (LAMP2); test: HCM quantification of G3BP1+ SGs associated with lysosomes (LAMP2); format: cell-based; conditions: 30 min after exposure to LLOMe
Description: Do SGs induced by lysosomal damage associate with lysosomes? The inventors addressed this by imaging analysis. By confocal fluorescence microscopy, the majority of G3BP1-positive SGs formed during lysosomal damage were either independent of lysosomes or juxtaposed to lysosomes (FIG. 3SA). By HCM quantification, only 10% of G3BP1^+ SGs appeared associated with lysosomes (LAMP2) 30 min after exposure to lysosomal damaging agent LLOMe. The inventors then asked the question whether SGs formed in response to lysosomal damage initiate as a nidus on the lysosomal surface. Using live microscopy, the inventors observed that the majority of SGs Were forming in locations independent of lysosomes (FIG. 3SB).

GABARAP = test: Immunoblot analysis of GABARAP lipidation in U2OS cells; format: cell-based, human; conditions: 2 mM LLOMe, indicated time points
[3] = tested on: mTOR and Raptor on lysosomes; test: LysoIP quantitative DIA proteomics (LC/MS/MS) of lysosomes from HEK293T cells; format: cell-based, human; conditions: 1 mM LLOMe for 30 min
Description: Three groups of proteins are labeled (ESCRT components in green, autophagy factors in blue and stress granule components in purple). […] The dotted orange line indicates the significance cut-off (P<0.05). […] The significant increased proteins in LysoIP LC/MS/MS were analyzed by STRING functional protein association networks. […] Strength, Log 10(observed/expected) describes how large the enrichment effect is. […] TMEM192-2×FLAG, control. […] U20S cells Were treated with Earle's Balanced Salt Solution (EBSS), 4 mM LOMe, 2 mM LLOMe, 200 μM GPN, or 400 μg/mL silica for 30 min. White masks, algorithm-defined cell boundaries (primary objects); red masks, computer-identified G3BP1 puncta (target objects). […] U2OS cells Were treated with 2 mM LLOMe for 30 min and stained for endogenous G3BP1. Scale bar, 5 μm. […] Green masks, computer-identified G3BP1 puncta. […] Red masks, computer-identified Galectin-3 puncta. FIG. 1G Immunoblot analysis of eIF2α (S51) phosphorylation in U2OS cells treated with 2 mM LLOMe for 30 min and followed by 1 h washout. […] The level of phosphorylation of eIF2α (S51) is quantified based on three independent experiments. […] Scale bar, 5/10 μm. […] The level of ATF4 and phosphorylation of eIF2α (S51) and 4EBP1 (S65) are quantified based on three independent experiments. Ctrl, control (untreated cells). […]

[4] = tested on: eIF2α (S51) phosphorylation; test: Immunoblot analysis of eIF2α (S51) phosphorylation in U2OS cells; format: cell-based, human; conditions: U2OS cells
[5] = tested on: G3BP1 puncta in BMM (bone-marrow-derived macrophages); test: HCM quantification of G3BP1 puncta in BMM; format: cell-based, murine; conditions: 2 mM LLOMe for 2 h
Description: Three groups of proteins are labeled (ESCRT components in green, autophagy factors in blue and stress granule components in purple). […] The dotted orange line indicates the significance cut-off (P<0.05). […] The significant increased proteins in LysoIP LC/MS/MS were analyzed by STRING functional protein association networks. […] Strength, Log 10(observed/expected) describes how large the enrichment effect is. […] TMEM192-2×FLAG, control. […] U20S cells Were treated with Earle's Balanced Salt Solution (EBSS), 4 mM LOMe, 2 mM LLOMe, 200 μM GPN, or 400 μg/mL silica for 30 min. White masks, algorithm-defined cell boundaries (primary objects); red masks, computer-identified G3BP1 puncta (target objects). […] The level of phosphorylation of eIF2α (S51) is quantified based on three independent experiments. […] The level of ATF4 and phosphorylation of eIF2α (S51) and 4EBP1 (S65) are quantified based on three independent experiments. […]
The inventors tested whether lysosomal damage induces SG formation using the conventional marker of SGs G3BP1 (Jain et al., 2016; Kedersha et al., 2005; Yang et al., 2020). […] For unbiased quantification, the inventors employed high content microscopy (HCM), which depends on epifluorescence mode to capture all cellular profiles in a volume. […] In all cell lines and primary cells tested, SG formation was observed upon lysosomal damage and quantified by HCM.

Structure (SMILES): COC(=O)[C@H](CC(C)C)NC(=O)[C@@H](N)CC(C)C [LLOMe, L-leucyl-L-leucine methyl ester]
- pT389 S6K levels (mTOR activity) (mTOR): drop in pT389 S6K levels
- overlap of G3BP1 puncta with polyA RNA probe (Cy3-oligo-dT, FISH) [1]: completely overlapped with polyA RNA probe
- G3BP1+ SGs associated with lysosomes (LAMP2) [2]: 10%
- GABARAP lipidation (GABARAP): GABARAP was lipidated
- mTOR and Raptor association with lysosomes (mass spectrometry) [3]: mTOR and Raptor dissociate from lysosomes
- eIF2α pS51 response after LLOMe washout ([4]; 2 mM LLOMe 30 min followed by 1 h washout): subsided
- phosphorylation of eIF2α on Ser51 ([4]; 2 mM LLOMe for 30 min): induced phosphorylation of eIF2α on Ser51
- phosphorylated eIF2α at later times during treatment ([4]; 2 mM LLOMe, later time points): reduced levels of phosphorylated eIF2α at later times
- eIF2α phosphorylation, dose dependence ([4]; indicated dose of LLOMe for 30 min): induced eIF2α phosphorylation
- SG formation (G3BP1 puncta) [5]: SGs Were detected
